Test results taken from patent US8906928B2, “Substituted pyrazolo-pyrrolo-pyridine-dione compounds” (ArQule, Inc., priority 2009, dated 2014).

Columns and labels:
Type in all cases: cell-based
DLD-1 = test: MTS assay (cell growth inhibition), DLD-1; conditions: DLD-1 cells, 72 hours incubation with test compound; concentration not given
Method: (§1) Cells were maintained at 37° C., 5% CO2 in DMEM media supplemented with 1% fetal bovine serum, penicillin/streptomycin and fungizone (Invitrogen). Cells were seeded into 96-well tissue culture plates at 3000 per well and cultured at 37° C. for 18 hours. Test compounds were dissolved and diluted to 300× in DMSO then diluted 1:40 in DMEM. Cells were incubated with test compounds for 72 hours followed by incubation with tetrazolium compound (3-(4,5-dimethylthiazol-2-yl)-5-(3-carboxymethoxyphenyl)-2-(4-sulfophenyl)-2H-tetrazolium, inner salt; MTS) and the electron coupling reagent, phenazine methosulfate (PMS) for 4 hours. […] The ability of compounds to inhibit cell growth in this assay is correlated with the reduction of dehydrogenase enzyme activity found in metabolically active cells. The measurement of the absorbance of the formazan was assessed using an ENVISION™ (Perkin Elmer) microplate reader at 492 nm. The calculated IC50 value is the concentration of the test compound that causes a 50% decrease in the absorbance.

Kato III = test: MTS assay (cell growth inhibition), Kato III; conditions: Kato III cells, 72 hours incubation with test compound; concentration not given
Method: as §1

MDA-MB = test: MTS assay (cell growth inhibition), MDA-MB; conditions: MDA-MB cells, 72 hours incubation with test compound; concentration not given
Method: as §1

NCI-H1299 = test: MTS assay (cell growth inhibition), NCI-H1299; conditions: NCI-H1299 cells, 72 hours incubation with test compound; concentration not given
Method: as §1

PACA-2 = test: MTS assay (cell growth inhibition), PACA-2; conditions: PACA-2 cells, 72 hours incubation with test compound; concentration not given
Method: as §1

PC-3 = test: MTS assay (cell growth inhibition), PC-3; conditions: PC-3 cells, 72 hours incubation with test compound; concentration not given
Method: as §1

Row | SMILES | MTS CELL KILL DATA (% INHIBITION) DLD-1 (DLD-1) | MTS CELL KILL DATA (% INHIBITION) Kato III (Kato III) | MTS CELL KILL DATA (% INHIBITION) MDA-MB (MDA-MB) | MTS CELL KILL DATA (% INHIBITION) NCI-H1299 (NCI-H1299) | MTS CELL KILL DATA (% INHIBITION) PACA-2 (PACA-2) | MTS CELL KILL DATA (% INHIBITION) PC-3 (PC-3)
1 | CN(C)c1cccc(CN2C(=O)c3cnc4[nH]ncc4c3C2=O)c1 [Example 23] | C (C = <50% INHIBITION) | C (C = <50% INHIBITION) | C (C = <50% INHIBITION) | C (C = <50% INHIBITION) | C (C = <50% INHIBITION) | C (C = <50% INHIBITION)
2 | COc1c(C)cnc(CN2C(=O)c3cnc4[nH]ncc4c3C2=O)c1C [Example 72, 7-[(4-methoxy-3,5-dimethylpyridin-2-yl)methyl]pyrazolo[3,4-b]pyrrolo[3,4-d]pyridine-6,8(3H,7H)-dione] | C (C = <50% INHIBITION) | A (A = 80-100% INHIBITION) | A (A = 80-100% INHIBITION) | C (C = <50% INHIBITION) | C (C = <50% INHIBITION) | A (A = 80-100% INHIBITION)
3 | Cc1ccc(CCN2C(=O)c3cnc4[nH]ncc4c3C2=O)cc1 [Example 69, 7-[2-(4-methylphenyl)ethyl]pyrazolo[3,4-b]pyrrolo[3,4-d]pyridine-6,8(3H,7H)-dione] | C (C = <50% INHIBITION) | C (C = <50% INHIBITION) | C (C = <50% INHIBITION) | C (C = <50% INHIBITION) | C (C = <50% INHIBITION) | C (C = <50% INHIBITION)
4 | CC(C)OCCN1C(=O)c2cnc3[nH]ncc3c2C1=O [Example 16, 7-(2-isopropoxyethyl)pyrazolo[3,4-b]pyrrolo[3,4-d]pyridine-6,8(3H,7H)-dione] | C (C = <50% INHIBITION) | C (C = <50% INHIBITION) | B (B = 50-79% INHIBITION) | C (C = <50% INHIBITION) | B (B = 50-79% INHIBITION) | C (C = <50% INHIBITION)
5 | C[C@H](CN1C(=O)c2cnc3[nH]ncc3c2C1=O)c1ccccc1 [Example 121, 7-[(2S)-2-phenylpropyl]pyrazolo[3,4-b]pyrrolo[3,4-d]pyridine-6,8(3H,7H)-dione] | C (C = <50% INHIBITION) | C (C = <50% INHIBITION) | B (B = 50-79% INHIBITION) | C (C = <50% INHIBITION) | C (C = <50% INHIBITION) | A (A = 80-100% INHIBITION)
6 | O=C1c2cnc3[nH]ncc3c2C(=O)N1CC1=Cc2ccccc2S1(=O)=O [Example 119, 7-[(1,1-dioxido-1-benzothien-2-yl)methyl]pyrazolo[3,4-b]pyrrolo[3,4-d]pyridine-6,8(3H,7H)-dione] | C (C = <50% INHIBITION) | C (C = <50% INHIBITION) | B (B = 50-79% INHIBITION) | C (C = <50% INHIBITION) | C (C = <50% INHIBITION) | C (C = <50% INHIBITION)
